Measured values from ChEMBL document CHEMBL4619705, “Conjugation of peptides to short-acyl-chain ceramides for delivery across mucosal cell barriers” (Bioorg Med Chem Lett, 2020).

Assay: Drug transport in MDCK2 cells assessed as transcytosis across epithelial monolayers at 37 degree C measured after 3 hrs by transwell assay
Format: ADME, cell-based, Canis lupus familiaris
Details: dog, mdck-ii

Drug transport	SMILES
5.8%	CCCCCCCCCCCCCC=CC=C(C=NOCC(=O)NCCCC[C@@H](NC(=O)CNC(=O)[C@@H](CO)NC(=O)CNC(=O)[C@@H](CCCNC(=N)N)NC(=O)CNC(=O)[C@@H](Cc1ccc(O)cc1)NC(=O)CNC(=O)[C@@H](CO)NC(=O)CNC(=O)[C@@H](CCCCNC(=O)CCCC[C@@H]1SC[C@@H]2NC(=O)N[C@@H]21)NC(=O)[C@H](N)Cc1cn(CCCCCCNC(=O)c2ccc(-c3c4ccc(=N)c(S(=O)(=O)O)c-4oc4c(S(=O)(=O)O)c(N)ccc34)c(C(=O)O)c2)nn1)C(N)=O)NC(=O)CCCCC
11.4%	CCCCCCCCCCCCC/C=C\[C@@H](O)[C@H](/C=N\OCC(=O)NCCCC[C@@H](NC(=O)CNC(=O)[C@@H](CO)NC(=O)CNC(=O)[C@@H](CCCNC(=N)N)NC(=O)CNC(=O)[C@@H](Cc1ccc(O)cc1)NC(=O)CNC(=O)[C@@H](CO)NC(=O)CNC(=O)[C@@H](CCCCNC(=O)CCCC[C@@H]1SC[C@@H]2NC(=O)N[C@@H]21)NC(=O)[C@H](N)Cc1cn(CCCCCCNC(=O)c2ccc(-c3c4ccc(=N)c(S(=O)(=O)O)c-4oc4c(S(=O)(=O)O)c(N)ccc34)c(C(=O)O)c2)nn1)C(N)=O)NC(=O)CCCCC

SMILES	Drug transport
N=C(N)NCCC[C@@H](NC(=O)CNC(=O)[C@@H](Cc1ccc(O)cc1)NC(=O)CNC(=O)[C@@H](CO)NC(=O)CNC(=O)[C@@H](CCCCNC(=O)CCCC[C@@H]1SC[C@@H]2NC(=O)N[C@@H]21)NC(=O)[C@H](N)Cc1cn(CCCCCCNC(=O)c2ccc(-c3c4ccc(=N)c(S(=O)(=O)O)c-4oc4c(S(=O)(=O)O)c(N)ccc34)c(C(=O)O)c2)nn1)C(=O)NCC(=O)N[C@H](CO)C(=O)NCC(=O)N[C@H](CCCCNC(=O)CON)C(N)=O	0.2%
